Measured values: PubChem BioAssay AID256 (DTP/NCI, 2004)
Several values for one entry are separate records, joined by “and”; a condition that tells them apart may be missing. Equal entries are not always repeated. Inconclusive results and toxic doses are left out.

Test system: CD2F1 mice, L1210 leukemia ip, survival T/C
Assay: NCI In Vivo Anticancer Drug Screen. Data for tumor model L1210 Leukemia (intraperitoneal) in CD2F1 (CDF1) mice
Conditions: higher = longer survival
Outline: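 Read-out first: treated-group measurement over vehicle-control measurement, expressed as a ratio. Animals bore a transplanted tumor line and were dosed with compound or vehicle.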

[1] = endpoint: mean survival time, dose: 100.0 mg/kg/injection, schedule: Q01DX009 (ip), vehicle: saline with Tween-80
[2] = endpoint: mean survival time, dose: 200.0 mg/kg/injection, schedule: Q01DX009 (ip), vehicle: saline with Tween-80
[3] = endpoint: mean survival time, dose: 400.0 mg/kg/injection, schedule: Q01DX009 (ip), vehicle: saline with Tween-80
[4] = endpoint: mean survival time, dose: 100.0 mg/kg/injection, schedule: Q01DX001 (ip), vehicle: saline with Tween-80
[5] = endpoint: mean survival time, dose: 200.0 mg/kg/injection, schedule: Q01DX001 (ip), vehicle: saline with Tween-80
[6] = endpoint: mean survival time, dose: 400.0 mg/kg/injection, schedule: Q01DX001 (ip), vehicle: saline with Tween-80
[7] = endpoint: mean survival time, dose: 100.0 mg/kg/injection, schedule: Q04DX003 (ip), vehicle: saline with Tween-80
[8] = endpoint: mean survival time, dose: 200.0 mg/kg/injection, schedule: Q04DX003 (ip), vehicle: saline with Tween-80
[9] = endpoint: mean survival time, dose: 400.0 mg/kg/injection, schedule: Q04DX003 (ip), vehicle: saline with Tween-80

SMILES: CC(=O)C(C)C(C)=O
- T/C [1]: 105 % of control
- T/C [2]: 107 % of control
- T/C [3]: 102 % of control

SMILES: CC1(C)C/C(=C\c2ccccc2[N+](=O)[O-])C(=O)c2ccccc21
- T/C (endpoint: mean survival time, dose: 100.0 mg/kg/injection, schedule: Q04DX003 (ip), vehicle: acetone): 92 % of control
- T/C (endpoint: mean survival time, dose: 200.0 mg/kg/injection, schedule: Q04DX003 (ip), vehicle: acetone): 90 % of control
- T/C (endpoint: mean survival time, dose: 400.0 mg/kg/injection, schedule: Q04DX003 (ip), vehicle: acetone): 93 % of control

SMILES: ClCCN(CC#CCCCC#CCN(CCCl)CCCl)CCCl
- T/C (endpoint: mean survival time, dose: 3.12 mg/kg/injection, schedule: Q01DX009 (ip), vehicle: saline): 121 % of control
- T/C (endpoint: mean survival time, dose: 6.25 mg/kg/injection, schedule: Q01DX009 (ip), vehicle: saline): 119 % of control and 121 % of control
- T/C (endpoint: mean survival time, dose: 25.0 mg/kg/injection, schedule: Q01DX009 (ip), vehicle: saline): 162 % of control
- T/C (endpoint: mean survival time, dose: 50.0 mg/kg/injection, schedule: Q01DX009 (ip), vehicle: saline): 89 % of control and 104 % of control

SMILES: CC(C)=CC(=O)CC(O)(C(F)(F)F)C(F)(F)Cl (configuration not stated)
- T/C (endpoint: mean survival time, dose: 100.0 mg/kg/injection, schedule: Q04DX003 (ip), vehicle: Klucel (hydroxypropylcellulose) (HPC)): 98 % of control
- T/C (endpoint: mean survival time, dose: 200.0 mg/kg/injection, schedule: Q04DX003 (ip), vehicle: Klucel (hydroxypropylcellulose) (HPC)): 93 % of control

SMILES: O=C(O)C(O)(O)C(=O)O
- T/C [4]: 102 % of control
- T/C [5]: 102 % of control
- T/C [6]: 102 % of control

SMILES: Cc1ccc(S(=O)(=O)N2CCC(=O)c3ccc(Cl)cc32)cc1
- T/C (endpoint: mean survival time, dose: 100.0 mg/kg/injection, schedule: Q01DX009 (ip), vehicle: Klucel (hydroxypropylcellulose) (HPC)): 101 % of control
- T/C (endpoint: mean survival time, dose: 200.0 mg/kg/injection, schedule: Q01DX009 (ip), vehicle: Klucel (hydroxypropylcellulose) (HPC)): 93 % of control
- T/C (endpoint: mean survival time, dose: 400.0 mg/kg/injection, schedule: Q01DX009 (ip), vehicle: Klucel (hydroxypropylcellulose) (HPC)): 96 % of control

SMILES: Cc1ccc(S(=O)(=O)N(CCCc2c(C)nc(N)[nH]c2=O)Cc2cccc([N+](=O)[O-])c2)cc1
- T/C [4]: 92 % of control
- T/C [5]: 96 % of control
- T/C [6]: 92 % of control

SMILES: Cc1ccc([N+](=O)[O-])cc1NC(=O)Nc1cc([N+](=O)[O-])ccc1O
- T/C [1]: 91 % of control
- T/C [2]: 96 % of control
- T/C [3]: 107 % of control

SMILES: O=C(O)Cc1ccccc1[N+](=O)[O-]
- T/C [4]: 106 % of control
- T/C [5]: 101 % of control
- T/C [6]: 101 % of control

SMILES: CCOC(=O)c1cc(CO)nc2c(Cl)cc(Cl)cc12
- T/C [1]: 91 % of control
- T/C [7]: 93 % of control
- T/C [2]: 90 % of control
- T/C [8]: 90 % of control
- T/C [3]: 90 % of control
- T/C [9]: 93 % of control

SMILES: CC(=O)Nc1c(N)ncnc1N
- T/C [7]: 90 % of control
- T/C [8]: 93 % of control
- T/C [9]: 98 % of control

SMILES: CC(Sc1ccccc1)C(=O)OC1C=CCCC1 (configuration not stated)
- T/C (endpoint: mean survival time, dose: 100.0 mg/kg/injection, schedule: Q04DX002 (ip), vehicle: saline with Tween-80): 98 % of control
- T/C (endpoint: mean survival time, dose: 200.0 mg/kg/injection, schedule: Q04DX002 (ip), vehicle: saline with Tween-80): 106 % of control
- T/C (endpoint: mean survival time, dose: 400.0 mg/kg/injection, schedule: Q04DX002 (ip), vehicle: saline with Tween-80): 98 % of control

SMILES: CCc1ccc(NS(=O)(=O)c2ccccc2)cc1
- T/C [1]: 90 % of control
- T/C [2]: 106 % of control
- T/C [3]: 95 % of control

SMILES: O=CN(SSN(C=O)C1CCCCC1)C1CCCCC1
- T/C (endpoint: mean survival time, dose: 12.5 mg/kg/injection, schedule: Q01DX009 (ip), vehicle: saline with Tween-80): 95 % of control and 103 % of control
- T/C (endpoint: mean survival time, dose: 25.0 mg/kg/injection, schedule: Q01DX009 (ip), vehicle: saline with Tween-80): 100 % of control and 108 % of control
- T/C (endpoint: mean survival time, dose: 50.0 mg/kg/injection, schedule: Q01DX009 (ip), vehicle: saline with Tween-80): 94 % of control and 105 % of control
- T/C [1]: 94 % of control and 98 % of control
- T/C [2]: 94 % of control and 103 % of control
- T/C [3]: 93 % of control and 102 % of control

SMILES: O=C(O)c1ccccc1C(=O)Nc1ccccc1C(F)(F)F
- T/C [1]: 104 % of control
- T/C [7]: 96 % of control
- T/C [2]: 106 % of control
- T/C [8]: 102 % of control
- T/C [3]: 95 % of control
- T/C [9]: 105 % of control

SMILES: Cn1c(=O)[nH]c2c(-c3ccccc3)n[nH]c2c1=O
- T/C (endpoint: median survival time, dose: 25.0 mg/kg/injection, schedule: Q04DX003 (ip), vehicle: saline with Tween-80): 90 % of control
- T/C (endpoint: median survival time, dose: 100.0 mg/kg/injection, schedule: Q04DX003 (ip), vehicle: saline with Tween-80): 90 % of control
- T/C (endpoint: median survival time, dose: 200.0 mg/kg/injection, schedule: Q04DX003 (ip), vehicle: saline with Tween-80): 90 % of control
